Like-named read-outs stand apart in the source and are kept apart here. Numbered stars: 1 amine (or outer) side, 2 acyl side, 3 side chain; on linkers, the order of the positions; unused ones are H or OH. Bridge positions count the residues as written; N and C are the ends. I, II: the chains in the order shown. * marks the point of attachment. X1 = CC(C)CCC[C@@H](C)[C@H]1CC[C@H]2[C@@H]3CC=C4C[C@@H](OCCN(CCNC(=O)CCOCCOCCOCCOCCNC(=O)CCCN5C(=O)CC([*:1])C5=O)CCNC(=O)CCOCCOCCOCCOCCNC(=O)CCCN5C(=O)CC([*:2])C5=O)CC[C@]4(C)[C@H]3CC[C@]12C; Cam = NC(=O)C*
Columns and labels:
HIV-1 BaL = conditions: TZM-bl cells; for IC50: read-out: IC50, inhibition of HIV-1 infectivity, strain BaL, R5 strain BaL, moi 4, luciferase read-out after 48 h
[1] = target: type 3 HPIV envelope glycoproteins mediated fusion (Human parainfluenza 3 virus, UniProt P06828); assay: cell-based; type: cell-based, human parainfluenza virus type 3 (HPIV3)
[2] = tested on: Nipah virus (isolate UMMC1)
[3] = target: Nipah virus envelope glycoproteins mediated fusion (Nipah virus, UniProt Q9IH63); assay: cell-based; type: cell-based
Nipah virus = tested on: Nipah virus; set-up: species or system golden hamster (Mesocricetus auratus); conditions: hamster, in vivo

Sequence of Nipah virus envelope glycoproteins mediated fusion (Q9IH63 110-546 limits assumed): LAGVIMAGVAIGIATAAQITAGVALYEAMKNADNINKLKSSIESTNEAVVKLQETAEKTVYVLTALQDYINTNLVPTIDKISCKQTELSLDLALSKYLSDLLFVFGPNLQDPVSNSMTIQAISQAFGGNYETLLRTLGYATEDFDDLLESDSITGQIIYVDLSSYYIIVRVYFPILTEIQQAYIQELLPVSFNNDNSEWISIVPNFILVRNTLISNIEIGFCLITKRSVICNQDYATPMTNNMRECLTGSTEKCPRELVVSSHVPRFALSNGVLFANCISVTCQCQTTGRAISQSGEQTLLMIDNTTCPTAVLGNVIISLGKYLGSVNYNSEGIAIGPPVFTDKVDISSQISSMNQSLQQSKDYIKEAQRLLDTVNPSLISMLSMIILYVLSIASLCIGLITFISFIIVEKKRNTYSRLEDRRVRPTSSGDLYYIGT
Sequence of Nipah virus envelope glycoproteins mediated fusion (Q9IH63 27-109 partner limits assumed): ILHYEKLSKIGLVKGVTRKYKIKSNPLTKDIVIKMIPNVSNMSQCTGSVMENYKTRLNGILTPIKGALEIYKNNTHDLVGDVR
Sequence of type 3 HPIV envelope glycoproteins mediated fusion (P06828 19-109): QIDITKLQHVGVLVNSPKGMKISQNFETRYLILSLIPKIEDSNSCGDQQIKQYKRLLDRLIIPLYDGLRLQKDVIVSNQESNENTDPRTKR
Sequence of type 3 HPIV envelope glycoproteins mediated fusion (P06828 110-539): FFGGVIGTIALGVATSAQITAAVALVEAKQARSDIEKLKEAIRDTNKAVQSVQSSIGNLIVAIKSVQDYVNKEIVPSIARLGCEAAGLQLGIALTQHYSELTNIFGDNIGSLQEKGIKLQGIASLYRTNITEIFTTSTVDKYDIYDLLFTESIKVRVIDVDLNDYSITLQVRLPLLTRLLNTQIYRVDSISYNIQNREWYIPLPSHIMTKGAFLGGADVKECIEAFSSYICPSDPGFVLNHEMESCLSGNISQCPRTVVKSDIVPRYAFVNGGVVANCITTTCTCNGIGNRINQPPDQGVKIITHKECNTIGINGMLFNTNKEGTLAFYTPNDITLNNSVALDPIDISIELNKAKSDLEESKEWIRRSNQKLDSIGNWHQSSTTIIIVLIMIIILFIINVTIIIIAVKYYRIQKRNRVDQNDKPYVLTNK

## CC[C@H](C)[C@H](NC(=O)[C@H](CC(C)C)NC(=O)[C@H](CO)NC(=O)[C@H](Cc1c[nH]cn1)NC(=O)[C@@H](NC(=O)[C@H](CC(C)C)NC(=O)[C@H](CO)NC(=O)[C@@H](NC(=O)[C@H](Cc1ccc(O)cc1)NC(=O)[C@H](CC(N)=O)NC(=O)[C@H](CC(N)=O)NC(=O)[C@@H](NC(=O)[C@H](CCC(=O)O)NC(=O)[C@H](CCCNC(=N)N)NC(=O)[C@H](CC(=O)O)NC(=O)[C@H](Cc1c[nH]c2ccccc12)NC(=O)[C@H](CCC(=O)O)NC(=O)[C@H](CCSC)NC(=O)[C@H](Cc1c[nH]c2ccccc12)NC(C)=O)[C@@H](C)CC)[C@@H](C)O)[C@@H](C)CC)C(=O)N[C@@H](CCC(=O)O)C(=O)N[C@@H](CCC(=O)O)C(=O)N[C@@H](CO)C(=O)N[C@@H](CCC(N)=O)C(=O)N[C@@H](CC(N)=O)C(=O)N[C@@H](CCC(N)=O)C(=O)N[C@@H](CCC(N)=O)C(=O)N[C@@H](CCC(=O)O)C(=O)N[C@@H](CCCCN)C(=O)N[C@@H](CC(N)=O)C(=O)N[C@@H](CCC(=O)O)C(=O)N[C@@H](CCC(N)=O)C(=O)N[C@@H](CCC(=O)O)C(=O)N[C@@H](CC(C)C)C(=O)N[C@@H](CC(C)C)C(=O)NCC(=O)N[C@@H](CO)C(=O)NCC(=O)N[C@@H](CSCC(N)=O)C(N)=O [HIV-P2]
HIV-1 BaL
  IC50: 60.1 ± 84 nM

## Ac-VALDPIDISIVLNKAKSDLEESKEWIRRSNGKLDSI-GSGSG-C(PEG4-Chol)-NH2 [HPIV-P3]
[1]
  Fold more potent than the untagged inhibitor (HPIV-P2), HPIV3 fusion: ≈ 10 fold
[1]; read-out: IC50, inhibition of HPIV3 envelope glycoprotein mediated cell-to-cell fusion
  IC50: 10 to 100 nM
[2]; read-out: IC50, NiV live virus plaque reduction
  IC50: 8.02 ± 0.66 nM
[3]; read-out: IC50, inhibition of NiV envelope glycoprotein mediated cell-to-cell fusion
  IC50: 1 to 10 nM

## Ac-VALDPIDISIVLNKAKSDLEESKEWIRRSNGKLDSIGSGSGC(Cam)-NH2 [HPIV-P2]
[1]
  IC50: > 100 nM
[3]
  IC50: > 100 nM

## I: Ac-VALDPIDISIVLNKAKSDLEESKEWIRRSNGKLDSIGSGSGC-NH2 / II: Ac-VALDPIDISIVLNKAKSDLEESKEWIRRSNGKLDSIGSGSGC-NH2 (linker I:42-II:42 via X1) [HPIV-P4]
[1]
  IC50: < 10 nM
  Relative fusion inhibitory potency in words, HPIV3 fusion: considerably more potent than the cholesterol-tagged monomer
[2]; 1 h
  IC50: 4.36 ± 1.3 nM
Nipah virus
  Onset of illness / lifespan of NiV-infected hamsters: onset of the illness was considerably delayed in the other four, leading to a significantly extended lifespan
  Survival of NiV-infected hamsters: survival of one of the five animals
[3]
  Fold more potent than the cholesterol-tagged monomer (HPIV-P3), NiV fusion: ≈ 10 fold
  IC50: < 1 nM

## CC[C@H](C)[C@H](NC(=O)[C@H](CC(C)C)NC(=O)[C@H](CO)NC(=O)[C@H](Cc1c[nH]cn1)NC(=O)[C@@H](NC(=O)[C@H](CC(C)C)NC(=O)[C@H](CO)NC(=O)[C@@H](NC(=O)[C@H](Cc1ccc(O)cc1)NC(=O)[C@H](CC(N)=O)NC(=O)[C@H](CC(N)=O)NC(=O)[C@@H](NC(=O)[C@H](CCC(=O)O)NC(=O)[C@H](CCCNC(=N)N)NC(=O)[C@H](CC(=O)O)NC(=O)[C@H](Cc1c[nH]c2ccccc12)NC(=O)[C@H](CCC(=O)O)NC(=O)[C@H](CCSC)NC(=O)[C@H](Cc1c[nH]c2ccccc12)NC(C)=O)[C@@H](C)CC)[C@@H](C)O)[C@@H](C)CC)C(=O)N[C@@H](CCC(=O)O)C(=O)N[C@@H](CCC(=O)O)C(=O)N[C@@H](CO)C(=O)N[C@@H](CCC(N)=O)C(=O)N[C@@H](CC(N)=O)C(=O)N[C@@H](CCC(N)=O)C(=O)N[C@@H](CCC(N)=O)C(=O)N[C@@H](CCC(=O)O)C(=O)N[C@@H](CCCCN)C(=O)N[C@@H](CC(N)=O)C(=O)N[C@@H](CCC(=O)O)C(=O)N[C@@H](CCC(N)=O)C(=O)N[C@@H](CCC(=O)O)C(=O)N[C@@H](CC(C)C)C(=O)N[C@@H](CC(C)C)C(=O)NCC(=O)N[C@@H](CO)C(=O)NCC(=O)N[C@@H](CSC1CC(=O)N(CCCC(=O)NCCOCCOCCOCCOCCC(=O)NCCN(CCNC(=O)CCOCCOCCOCCOCCNC(=O)CCCN2C(=O)CC(SC[C@H](NC(=O)CNC(=O)[C@H](CO)NC(=O)CNC(=O)[C@H](CC(C)C)NC(=O)[C@H](CC(C)C)NC(=O)[C@H](CCC(=O)O)NC(=O)[C@H](CCC(N)=O)NC(=O)[C@H](CCC(=O)O)NC(=O)[C@H](CC(N)=O)NC(=O)[C@H](CCCCN)NC(=O)[C@H](CCC(=O)O)NC(=O)[C@H](CCC(N)=O)NC(=O)[C@H](CCC(N)=O)NC(=O)[C@H](CC(N)=O)NC(=O)[C@H](CCC(N)=O)NC(=O)[C@H](CO)NC(=O)[C@H](CCC(=O)O)NC(=O)[C@H](CCC(=O)O)NC(=O)[C@@H](NC(=O)[C@H](CC(C)C)NC(=O)[C@H](CO)NC(=O)[C@H](Cc3c[nH]cn3)NC(=O)[C@@H](NC(=O)[C@H](CC(C)C)NC(=O)[C@H](CO)NC(=O)[C@@H](NC(=O)[C@H](Cc3ccc(O)cc3)NC(=O)[C@H](CC(N)=O)NC(=O)[C@H](CC(N)=O)NC(=O)[C@@H](NC(=O)[C@H](CCC(=O)O)NC(=O)[C@H](CCCNC(=N)N)NC(=O)[C@H](CC(=O)O)NC(=O)[C@H](Cc3c[nH]c4ccccc34)NC(=O)[C@H](CCC(=O)O)NC(=O)[C@H](CCSC)NC(=O)[C@H](Cc3c[nH]c4ccccc34)NC(C)=O)[C@@H](C)CC)[C@@H](C)O)[C@@H](C)CC)[C@@H](C)CC)C(N)=O)C2=O)CCO[C@H]2CC[C@@]3(C)C(=CC[C@H]4[C@@H]5CC[C@H]([C@H](C)CCCC(C)C)[C@@]5(C)CC[C@@H]43)C2)C1=O)C(N)=O (stereo partly shown) [HIV-P4]
HIV-1 BaL; ratio of IC50
  Potency increase versus the untagged HR-derived peptide (HIV-P2), strain BaL: 6,000 fold
HIV-1 BaL
  IC50: 0.01 ± 0.01 nM

Reference: PMC3353973 (PLoS ONE, 2012)
